From patent EP4786487A1, “PEPTIDE” (Peptidream Inc, priority 2023, dated 2025)
Where two headings read alike, the source gives them in different places. Starred links: 1 amine or outer side, 2 acyl side, 3 side chain; linkers in the order of their positions; H or OH if unused. Positions of bridges follow the written chain, without caps; N, C: chain ends. Non-standard residues stand in square brackets, D forms with d. Residues, ends and D or L forms follow the SMILES beside them. *: point of attachment. Phe(4-(4-pyridyl)) = N[C@@H](Cc1ccc(-c2ccncc2)cc1)C(=O)O; Phe(3-OCH2COOH) = N[C@@H](Cc1cccc(OCC(=O)O)c1)C(=O)O; Piperidine(4-CH2CH2CONH2) = NC(=O)CCC1CCN(*)CC1; Trp(6-OH) = N[C@@H](Cc1c[nH]c2cc(O)ccc12)C(=O)O; Phe(4-COOH) = N[C@@H](Cc1ccc(C(=O)O)cc1)C(=O)O; Trp(7-aza) = N[C@@H](Cc1c[nH]c2ncccc12)C(=O)O; Piperazinyl(4-CH2COOH) = O=C(O)CN1CCN(*)CC1; Gly(Nα-CH2CH2CONH2) = NC(=O)CCNCC(=O)O; Gly(decyl) = CCCCCCCCCC[C@H](N)C(=O)O; Gly(N(CH2)3COOH) = O=C(O)CCCNCC(=O)O; Gly(octyl) = CCCCCCCC[C@H](N)C(=O)O; X1 = CCCCCCC[C@H](N[*:1])C(=O)[*:2]; Gly(N-(CH2)3OMe) = COCCCNCC(=O)O; NMeF = CN[C@@H](Cc1ccccc1)C(=O)O; 4Pal = N[C@@H](Cc1ccncc1)C(=O)O; NMeE = CN[C@@H](CCC(=O)O)C(=O)O; Carboxymethyl = O=C(O)C*; NMeA = CN[C@@H](C)C(=O)O; Sar = CNCC(=O)O

Tests used:
Format in all cases: cell-based
Myostatin [1] = biological target: T1, Myostatin (Homo sapiens, UniProt O14793); assay: Reporter gene assay for myostatin signaling in HepG2 cell line, Evaluation Procedure (1), myostatin inhibition; settings: read-out: IC50 (Luciferase) Myostatin HepG2
T1 construct: active myostatin (also called mature myostatin) is a homodimer consisting of two C-terminal growth factor domains; purchased R&D systems 788-G8/CF
T1 sequence (O14793 267-375): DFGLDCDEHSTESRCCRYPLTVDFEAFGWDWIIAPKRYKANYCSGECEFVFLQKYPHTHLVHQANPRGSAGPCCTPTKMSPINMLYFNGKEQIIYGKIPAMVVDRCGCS
Outline: (§1)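 IC50 derived from One-Glo luciferase luminescence after 20–24 h at 37 °C. Peptides titrated 4-fold at 0.006–100 nmol/L against myostatin or 0.12–2000 nmol/L against GDF-11 in HepG2 cells carrying a transfected CAGA12-luciferase reporter, kept in 0.1% BSA EMEM.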

Myostatin [2] = assay: as above; settings: GDF-11 IC50 versus Myostatin IC50
Outline: as §1

GDF-11 = biological target: T2, GDF-11 (Homo sapiens, UniProt O95390); assay: Reporter gene assay for myostatin signaling in HepG2 cell line, Evaluation Procedure (1), GDF-11 inhibition; settings: read-out: IC50 (Luciferase) GDF-11 HepG2
T2 construct: purchased R&D systems 1958-GD-G8/CF
T2 sequence (O95390 299-407): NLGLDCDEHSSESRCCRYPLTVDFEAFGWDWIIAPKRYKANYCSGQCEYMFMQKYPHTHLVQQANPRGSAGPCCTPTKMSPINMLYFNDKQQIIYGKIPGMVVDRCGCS
Outline: as §1

Row | SMILES | IC50 (Myostatin [1]; Method A: Myostatin 10 ng/mL) [nM] | Selectivity (Myostatin [2]; Method A) | IC50 (GDF-11; Method A: GDF-11 10 ng/mL) [nM] | other results
1 | CC[C@H](C)[C@@H]1NC(=O)[C@H](Cc2ccccc2)N(C)C(=O)[C@H](Cc2ccc(O)cc2)NC(=O)[C@H](Cc2c[nH]c3ccccc23)NC(=O)[C@H](CO)NC(=O)CN(CCCC(=O)O)C(=O)CSC[C@H](C(=O)O)NC(=O)[C@H](Cc2ccccc2)N(C)C(=O)[C@H](C)N(C)C(=O)[C@H](CC(C)C)NC(=O)[C@H](Cc2ccccc2)N(C)C(=O)[C@H](CCCNC(=N)N)NC(=O)[C@H](Cc2ccc(C(=O)O)cc2)NC(=O)[C@H](Cc2cccc(OCC(=O)O)c2)NC(=O)[C@H](C)N(C)C1=O [Myostatin_99_v158] ({CH2CO}-[Gly(N(CH2)3COOH)]SWY[NMeF]I[NMeA][Phe(3-OCH2COOH)][Phe(4-COOH)]R[NMeF]L[NMeA][NMeF][dC]-OH; thioether N-15) | 62 | 104 | 6460 | 
2 | CCCCCCC[C@@H]1NC(=O)[C@H](Cc2ccccc2)N(C)C(=O)[C@H](CCCNC(=N)N)NC(=O)[C@H](Cc2ccc(C(=O)O)cc2)NC(=O)[C@H](Cc2cccc(OCC(=O)O)c2)NC(=O)CN(C)C(=O)[C@H]([C@@H](C)CC)NC(=O)[C@H](Cc2ccccc2)N(C)C(=O)[C@H](Cc2ccc(O)cc2)NC(=O)[C@H](Cc2c[nH]c3ncccc23)NC(=O)[C@H](C)NC(=O)CN(CCCC(=O)O)C(=O)CSC[C@H](C(=O)O)NC(=O)[C@H](Cc2ccccc2)N(C)C(=O)[C@H](C)N(C)C1=O [Myostatin_99_v166] ({CH2CO}-[Gly(N(CH2)3COOH)]A[Trp(7-aza)]Y[NMeF]I[Sar][Phe(3-OCH2COOH)][Phe(4-COOH)]R[NMeF][X1][NMeA][NMeF][dC]-OH; thioether N-15) | 3.5 | 272 | 951 | 
3 | CC[C@H](C)[C@@H]1NC(=O)[C@H](Cc2ccccc2)N(C)C(=O)[C@H](Cc2ccc(O)cc2)NC(=O)[C@H](Cc2c[nH]c3ncccc23)NC(=O)[C@H](C)NC(=O)CN(CCC(N)=O)C(=O)CSC[C@H](C(=O)O)NC(=O)[C@H](Cc2ccccc2)N(C)C(=O)[C@H](C)N(C)C(=O)[C@H](CC(C)C)NC(=O)[C@H](Cc2ccccc2)N(C)C(=O)[C@H](CCCNC(=N)N)NC(=O)[C@H](Cc2ccc(C(=O)O)cc2)NC(=O)[C@H](Cc2ccccc2)NC(=O)CN(C)C1=O [Myostatin_99_v46] ({CH2CO}-[Gly(Nα-CH2CH2CONH2)]A[Trp(7-aza)]Y[NMeF]I[Sar]F[Phe(4-COOH)]R[NMeF]L[NMeA][NMeF][dC]-OH; thioether N-15) | 43.2 | 36 | 1540 | 
4 | CCCCCCC[C@@H]1NC(=O)[C@H](Cc2ccccc2)N(C)C(=O)[C@H](CCCNC(=N)N)NC(=O)[C@H](Cc2ccc(C(=O)O)cc2)NC(=O)[C@H](Cc2cccc(OCC(=O)O)c2)NC(=O)CN(C)C(=O)[C@H]([C@@H](C)CC)NC(=O)[C@H](Cc2ccccc2)N(C)C(=O)[C@H](Cc2ccc(O)cc2)NC(=O)[C@H](Cc2c[nH]c3ccccc23)NC(=O)[C@H](C)NC(=O)[C@H](C)NC(=O)CSC[C@H](C(=O)O)NC(=O)[C@H](Cc2ccccc2)N(C)C(=O)[C@H](C)N(C)C1=O [Myostatin_99_v174] ({CH2CO}-AAWY[NMeF]I[Sar][Phe(3-OCH2COOH)][Phe(4-COOH)]R[NMeF][X1][NMeA][NMeF][dC]-OH; thioether N-15) | 1.7 | 133 | 226 | 
5 | CC[C@H](C)[C@@H]1NC(=O)[C@H](Cc2ccccc2)N(C)C(=O)[C@H](Cc2ccc(O)cc2)NC(=O)[C@H](Cc2ccc(-c3ccncc3)cc2)NC(=O)[C@H](C)NC(=O)CN(CCCC(=O)O)C(=O)CSC[C@H](C(N)=O)NC(=O)[C@H](Cc2ccccc2)N(C)C(=O)[C@H](C)N(C)C(=O)[C@H](CC(C)C)NC(=O)[C@H](Cc2ccccc2)N(C)C(=O)[C@H](CCCNC(=N)N)NC(=O)[C@H](Cc2ccc(OCC(=O)O)cc2)NC(=O)[C@H](Cc2cccc(OCC(=O)O)c2)NC(=O)[C@H](C)N(C)C1=O [Myostatin_99_v123] ({CH2CO}-[Gly(N(CH2)3COOH)]A[Phe(4-(4-pyridyl))]Y[NMeF]I[NMeA][Phe(3-OCH2COOH)]Y(Carboxymethyl)R[NMeF]L[NMeA][NMeF][dC]-NH2; thioether N-15) | 38.1 | 194 | 7390 | 
6 | CCCCCCC[C@@H]1NC(=O)[C@H](Cc2ccccc2)N(C)C(=O)[C@H](CCCNC(=N)N)NC(=O)[C@H](Cc2ccc(C(=O)O)cc2)NC(=O)[C@H](Cc2cccc(OCC(=O)O)c2)NC(=O)[C@H](C)N(C)C(=O)[C@H]([C@@H](C)CC)NC(=O)[C@H](Cc2ccccc2)N(C)C(=O)[C@H](Cc2ccc(O)cc2)NC(=O)[C@H](Cc2c[nH]c3ccccc23)NC(=O)[C@H](C)NC(=O)[C@H](C)NC(=O)CSC[C@H](C(=O)O)NC(=O)[C@H](Cc2ccccc2)N(C)C(=O)[C@H](C)N(C)C1=O [Myostatin_99_v194] ({CH2CO}-AAWY[NMeF]I[NMeA][Phe(3-OCH2COOH)][Phe(4-COOH)]R[NMeF][X1][NMeA][NMeF][dC]-OH; thioether N-15) | 1.2 | 116 | 139 | 
7 | CC[C@H](C)[C@@H]1NC(=O)[C@H](Cc2ccccc2)N(C)C(=O)[C@H](Cc2ccc(O)cc2)NC(=O)[C@H](Cc2c[nH]c3ncccc23)NC(=O)[C@H](C)NC(=O)CN(CCCC(=O)O)C(=O)CSC[C@H](C(=O)NCC(=O)N[C@H](CCC(=O)O)C(=O)NCC(=O)N[C@H](CCCCN)C(=O)O)NC(=O)[C@H](Cc2ccccc2)N(C)C(=O)[C@H](C)N(C)C(=O)[C@H](CC(C)C)NC(=O)[C@H](Cc2ccccc2)N(C)C(=O)[C@H](CCCNC(=N)N)NC(=O)[C@H](Cc2ccc(C(=O)O)cc2)NC(=O)[C@H](Cc2ccncc2)NC(=O)CN(C)C1=O [Myostatin_99_v31] ({CH2CO}-[Gly(N(CH2)3COOH)]A[Trp(7-aza)]Y[NMeF]I[Sar][4Pal][Phe(4-COOH)]R[NMeF]L[NMeA][NMeF][dC]G[dE]G[dK]-OH; thioether N-15) | 54.7 | 25 | 1340 | 
8 | CCCCCCCCCC[C@@H]1NC(=O)[C@H](Cc2ccccc2)N(C)C(=O)[C@H](CCCNC(=N)N)NC(=O)[C@H](Cc2ccc(C(=O)O)cc2)NC(=O)[C@H](Cc2cccc(OCC(=O)O)c2)NC(=O)CN(C)C(=O)[C@H]([C@@H](C)CC)NC(=O)[C@H](Cc2ccccc2)N(C)C(=O)[C@H](Cc2ccc(O)cc2)NC(=O)[C@H](Cc2c[nH]c3ccccc23)NC(=O)[C@H](C)NC(=O)[C@H](C)NC(=O)CSC[C@H](C(=O)N2CCC(CCC(N)=O)CC2)NC(=O)[C@H](Cc2ccccc2)N(C)C(=O)[C@H](CCC(=O)O)N(C)C1=O [Myostatin_99_v346] ({CH2CO}-AAWY[NMeF]I[Sar][Phe(3-OCH2COOH)][Phe(4-COOH)]R[NMeF][Gly(decyl)][NMeE][NMeF][dC]-{Piperidine(4-CH2CH2CONH2)}; thioether N-15) |  |  |  | IC50 (Myostatin [1]; Method C: Myostatin 1.5 ng/mL): 0.09 nM; Selectivity (Myostatin [2]; Method C): 116.0; IC50 (GDF-11; Method C: GDF-11 1 ng/mL): 10.5 nM
9 | CCCCCCCCCC[C@@H]1NC(=O)[C@H](Cc2ccccc2)N(C)C(=O)[C@H](CCCNC(=N)N)NC(=O)[C@H](Cc2ccc(C(=O)O)cc2)NC(=O)[C@H](Cc2cccc(OCC(=O)O)c2)NC(=O)[C@H]2CCCN2C(=O)[C@H]([C@@H](C)CC)NC(=O)[C@H](Cc2ccccc2)N(C)C(=O)[C@H](Cc2ccc(O)cc2)NC(=O)[C@H](Cc2c[nH]c3cc(O)ccc23)NC(=O)[C@H](C)NC(=O)[C@H](C)NC(=O)CSC[C@H](C(=O)N2CCN(CC(=O)O)CC2)NC(=O)[C@H](Cc2ccccc2)N(C)C(=O)[C@H](CCC(=O)O)N(C)C1=O [Myostatin_99_v384] ({CH2CO}-AA[Trp(6-OH)]Y[NMeF]I[dP][Phe(3-OCH2COOH)][Phe(4-COOH)]R[NMeF][Gly(decyl)][NMeE][NMeF][dC]-{Piperazinyl(4-CH2COOH)}; thioether N-15) |  |  |  | IC50 (Myostatin [1]; Method D: Myostatin 1.5 ng/mL): 0.04 nM; Selectivity (Myostatin [2]; Method D): 805.658; IC50 (GDF-11; Method D: GDF-11 1.5 ng/mL): 32.8 nM
10 | CCCCCCCC[C@@H]1NC(=O)[C@H](Cc2ccccc2)N(C)C(=O)[C@H](CCCNC(=N)N)NC(=O)[C@H](Cc2ccc(OC)cc2)NC(=O)[C@H](Cc2cccc(OCC(=O)O)c2)NC(=O)CN(C)C(=O)[C@H]([C@@H](C)CC)NC(=O)[C@H](Cc2ccccc2)N(C)C(=O)[C@H](Cc2ccc(O)cc2)NC(=O)[C@H](Cc2c[nH]c3cc(O)ccc23)NC(=O)[C@H](C)NC(=O)CN(CCCOC)C(=O)CSC[C@H](C(N)=O)NC(=O)[C@H](Cc2ccccc2)N(C)C(=O)[C@H](C)N(C)C1=O [Myostatin_99_v418] ({CH2CO}-[Gly(N-(CH2)3OMe)]A[Trp(6-OH)]Y[NMeF]I[Sar][Phe(3-OCH2COOH)]Y(Me)R[NMeF][Gly(octyl)][NMeA][NMeF][dC]-NH2; thioether N-15) |  |  |  | IC50 (Myostatin [1]; Method D: Myostatin 1.5 ng/mL): 0.22 nM; Selectivity (Myostatin [2]; Method D): 136.2; IC50 (GDF-11; Method D: GDF-11 1.5 ng/mL): 29.6 nM
